Assays:
HT29 = experiment: NCI 60 five-dose screen HT29; type: cell-based; details: Homo sapiens
HS 578T = experiment: NCI 60 five-dose screen HS 578T; type: cell-based; details: Homo sapiens
ACHN = experiment: NCI 60 five-dose screen ACHN; type: cell-based; details: Homo sapiens
NCI-H522 = experiment: NCI 60 five-dose screen NCI-H522; type: cell-based; details: Homo sapiens
COLO 205 = experiment: NCI 60 five-dose screen COLO 205; type: cell-based; details: Homo sapiens
SF-295 = experiment: NCI 60 five-dose screen SF-295; type: cell-based; details: Homo sapiens
HOP-92 = experiment: NCI 60 five-dose screen HOP-92; type: cell-based; details: Homo sapiens
HCC-2998 = experiment: NCI 60 five-dose screen HCC-2998; type: cell-based; details: Homo sapiens
NCI/ADR-RES = experiment: NCI 60 five-dose screen NCI/ADR-RES; type: cell-based; details: Homo sapiens
U251 = experiment: NCI 60 five-dose screen U251; type: cell-based; details: Homo sapiens
M14 = experiment: NCI 60 five-dose screen M14; type: cell-based; details: Homo sapiens
A498 = experiment: NCI 60 five-dose screen A498; type: cell-based; details: Homo sapiens
full NCI 60 cell panel = experiment: NCI 60 Cell One-dose screen; type: cell-based, human; details: single high dose 10^−5 M, NCI 60 panel
Text: Compounds were submitted to the NCI 60 Cell screen and tested at a single high dose (10^−5 M) in the full NCI 60 cell panel (see the following reference for details of using NCI 60 human tumor cell lines for screening anticancer drugs: Shoemaker R H. The NCI60 human tumor cell line anticancer drug screen. Nature Rev Cancer 2006; 6: 813-23). The One-dose data is reported as a mean graph of the percent growth of treated cells. The number reported for the One-dose assay is growth relative to the no-drug control, and relative to the time zero number of cells. This allows detection of both growth inhibition (values between 0 and 100) and lethality (values less than 0). For example, a value of 100 means no growth inhibition. A value of 40 would mean 60% growth inhibition. A value of 0 means no net growth over the course of the experiment. A value of −40 would mean 40% lethality. A value of −100 means all cells are dead. FIGS. 1-8 show the mean graph of percent growth against the NCI-60 cell panel for NUCC-0226674, NUCC-0226679, NUCC-0226680, NUCC-0226683, NUCC-0226689, NUCC-0226694, NUCC-0226695, and NUCC-0226698.

UACC-62 = experiment: NCI 60 five-dose screen UACC-62; type: cell-based; details: Homo sapiens
MCF7 = experiment: NCI 60 five-dose screen MCF7; type: cell-based; details: Homo sapiens
HCT-116 = experiment: NCI 60 five-dose screen HCT-116; type: cell-based; details: Homo sapiens
SR = experiment: NCI 60 five-dose screen SR; type: cell-based, human
UACC-257 = experiment: NCI 60 five-dose screen UACC-257; type: cell-based; details: Homo sapiens
IGROV1 = experiment: NCI 60 five-dose screen IGROV1; type: cell-based; details: Homo sapiens
KM12 = experiment: NCI 60 five-dose screen KM12; type: cell-based; details: Homo sapiens
NCI-H322M = experiment: NCI 60 five-dose screen NCI-H322M; type: cell-based; details: Homo sapiens
CCRF-CEM = experiment: NCI 60 five-dose screen CCRF-CEM; type: cell-based; details: Homo sapiens
CAKI-1 = experiment: NCI 60 five-dose screen CAKI-1; type: cell-based; details: Homo sapiens
OVCAR-8 = experiment: NCI 60 five-dose screen OVCAR-8; type: cell-based; details: Homo sapiens
[1] = read-out: LC50 (the source's name)
[2] = read-out: LC50 (the source's name) (converted)

Work on COc1cc(Cn2c(C(F)(F)F)cc3c(Cl)ncnc32)ccn1 [NUCC-0226694] yielded a GI50 (HT29; HT-29) of 14.1 µM, an IC50 (HT29; HT-29) of 21.9 µM and an IC (TGI) (HT29; HT-29) of 41.7 µM. It also gave a CC50 (HT29; HT-29, read-out: LC50 (the source's name) (converted)) of no less than 100 µM, a GI50 (HS 578T) of 3.16 µM and an IC50 (HS 578T) of 24.5 µM. The IC (TGI) (HS 578T) was 16.6 µM, the CC50 (HS 578T; [1]) was no less than 100 µM and the GI50 (ACHN) was 14.5 µM. The IC50 (ACHN) was 25.1 µM, the IC (TGI) (ACHN) was 28.8 µM and the CC50 (ACHN; [2]) was 57.5 µM. It also gave a GI50 (NCI-H522) of 3.31 µM, an IC50 (NCI-H522) of 11 µM and an IC (TGI) (NCI-H522) of 15.1 µM. The CC50 (NCI-H522; [2]) was 50.1 µM, the GI50 (COLO 205) was 15.1 µM and the IC50 (COLO 205) was 26.3 µM. The IC (TGI) (COLO 205) was 46.8 µM, the CC50 (COLO 205; [2]) was no less than 100 µM and the GI50 (SF-295) was 16.6 µM. For the same molecule, the IC50 (SF-295) was 30.2 µM, the IC (TGI) (SF-295) was 32.4 µM and the CC50 (SF-295; [2]) was 63.1 µM. It also gave a GI50 (HOP-92) of 10.7 µM, an IC50 (HOP-92) of 33.9 µM and an IC (TGI) (HOP-92) of 30.2 µM. It also gave a CC50 (HOP-92; [2]) of 85.1 µM, a GI50 (HCC-2998) of 1.78 µM and an IC50 (HCC-2998) of 3.16 µM. For the same molecule, the IC (TGI) (HCC-2998) was 3.24 µM, the CC50 (HCC-2998; [2]) was 6.03 µM and the GI50 (NCI/ADR-RES) was 15.1 µM. The IC50 (NCI/ADR-RES) was 27.5 µM, the IC (TGI) (NCI/ADR-RES) was 33.9 µM and the CC50 (NCI/ADR-RES; [2]) was 74.1 µM. For the same molecule, the GI50 (U251; U-251) was 15.1 µM, the IC50 (U251; U-251) was 26.9 µM and the IC (TGI) (U251; U-251) was 28.8 µM. The CC50 (U251; U-251, read-out: LC50 (the source's name) (converted)) was 56.2 µM, the GI50 (M14) was 1.51 µM and the IC50 (M14) was 2.69 µM. The IC (TGI) (M14) was 4.17 µM, the CC50 (M14; [2]) was 16.6 µM and the GI50 (A498) was 15.8 µM. For the same molecule, the IC50 (A498) was 33.1 µM, the IC (TGI) (A498) was 30.9 µM and the CC50 (A498; [2]) was 58.9 µM. For the same molecule, the “growth inhibition in the One-Dose Screen” value (full NCI 60 cell panel) was “significant growth inhibition”, the GI50 (UACC-62) was 8.13 µM and the IC50 (UACC-62) was 15.8 µM. The IC (TGI) (UACC-62) was 20.4 µM, the CC50 (UACC-62; [2]) was 45.7 µM and the GI50 (MCF7) was 5.13 µM. It also gave an IC50 (MCF7) of 7.24 µM, an IC (TGI) (MCF7) of 20 µM and a CC50 (MCF7; [2]) of 61.7 µM. The GI50 (HCT-116) was 1.74 µM, the IC50 (HCT-116) was 2.63 µM and the IC (TGI) (HCT-116) was 4.27 µM. For the same molecule, the CC50 (HCT-116; [2]) was 15.1 µM, the TGI (SR) was 4 −log[M] and the GI50 (SR; Homo sapiens) was 3.63 µM. For the same molecule, the IC50 (SR; Homo sapiens) was 4.79 µM, the CC50 (SR; Homo sapiens, read-out: LC50 (the source's name)) was no less than 100 µM and the GI50 (UACC-257) was 8.51 µM. It also gave an IC50 (UACC-257) of 19.5 µM, an IC (TGI) (UACC-257) of 21.9 µM and a CC50 (UACC-257; [2]) of 49 µM. It also gave a GI50 (IGROV1; IGROV-1) of 1.78 µM, an IC50 (IGROV1; IGROV-1) of 3.16 µM and an IC (TGI) (IGROV1; IGROV-1) of 3.63 µM. The CC50 (IGROV1; IGROV-1, read-out: LC50 (the source's name) (converted)) was 7.41 µM, the GI50 (KM12) was 13.5 µM and the IC50 (KM12) was 22.9 µM. It also gave an IC (TGI) (KM12) of 30.2 µM, a CC50 (KM12; [2]) of 69.2 µM and a GI50 (NCI-H322M) of 1.7 µM. It also gave an IC50 (NCI-H322M) of 3.16 µM, an IC (TGI) (NCI-H322M) of 3.31 µM and a CC50 (NCI-H322M; [2]) of 6.31 µM. The GI50 (CCRF-CEM) was 3.16 µM, the IC50 (CCRF-CEM) was 5.37 µM and the IC (TGI) (CCRF-CEM) was 18.6 µM. It also gave a CC50 (CCRF-CEM; [1]) of no less than 100 µM, a GI50 (CAKI-1) of 7.24 µM and an IC50 (CAKI-1) of 13.8 µM. For the same molecule, the IC (TGI) (CAKI-1) was 20.4 µM, the CC50 (CAKI-1; [2]) was 46.8 µM and the GI50 (OVCAR-8) was 11.5 µM. For the same molecule, the IC50 (OVCAR-8) was 19.1 µM, the IC (TGI) (OVCAR-8) was 26.3 µM and the CC50 (OVCAR-8; [2]) was 61.7 µM.

— US20240109903A1, “SUBSTITUTED HETEROCYCLES FOR TREATING CANCER” (Northwestern University, priority 2022, published 2024)
